# According to patent US4900673A, “Mutant human angiogenin (angiogenesis factor with superior angiogenin activity) genes therefor and methods of expression” (President and Fellows of Harvard College, priority 1988, dated 1990):
# Key:
# bovine RNase A = target: T1, bovine RNase A (Bos taurus, UniProt P61823); settings: measured under conditions employed here (Harper et al., Biochemistry 27: 219-226); cited from earlier work
# T1 sequence (P61823 27-150): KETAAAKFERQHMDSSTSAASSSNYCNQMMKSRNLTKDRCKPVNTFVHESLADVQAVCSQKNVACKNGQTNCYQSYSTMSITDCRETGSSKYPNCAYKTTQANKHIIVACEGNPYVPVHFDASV
# [1] = target: T2, human angiogenin variant D116N-angiogenin (Asn-116) (Homo sapiens, UniProt P03950, D140N); experiment: Cleavage of dinucleoside phosphates (HPLC method); format: biochemical; settings: 30 mM Mes, pH 6.0, 30 mM NaCl, 0.1 mM dinucleoside phosphate, 37° C.
# T2 construct: made in house; host or cells: E. coli W3110
# T2 sequence (P03950 25-147 D140N): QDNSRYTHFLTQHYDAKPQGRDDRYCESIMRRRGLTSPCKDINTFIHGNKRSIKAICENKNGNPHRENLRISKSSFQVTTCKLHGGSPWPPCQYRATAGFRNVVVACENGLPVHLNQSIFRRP
# Experimental: Activity toward the RNase substrates cytidyl (3'→5') adenosine (CpA) and uridyl (3'→5') adenosine (UpA) was determined using a sensitive HPLC method described previously (Shapiro et al., Biochemistry 25: 3527-3532 and 7255-7264 1986). Reaction mixture containing 30 mM 2-(N-morpholino) ethane sulfonic acid (Mes), pH 6.0, 30 mM NaCl and 0.1 mM dinucleoside phosphate were incubated with angiogenin (0.7-3.0 μM) at 37° C. Aliquots (15-20 μl) were removed at various times and injected onto an HPLC column (radial Pak C18; Waters Associates) equilibrated with 10 mM potassium phosphate, pH 7.0. Elution of reactants and products was accomplished using a linear gradient of methanol in 100 mM potassium phosphate pH 7.0 at a flow rate of 0.8 ml/minutes. Elution was monitored at 254 nm and the integrated areas of reactants and products used to calculate kcat /Km using the expression kcat /Km =1n {[S] o /[S]t }/[E]t.
kcat /Km [1],Compound,kcat /Km (bovine RNase A)
,"Nc1ccn([C@@H]2O[C@H](CO)[C@@H](OP(=O)(O)OC[C@H]3O[C@@H](n4cnc5c(N)ncnc54)[C@H](O)[C@@H]3O)[C@H]2O)c(=O)n1 [CpA, cytidyl (3'→5') adenosine]",6e+06 M⁻¹ s⁻¹
0.5 M^-1 s^-l,"Nc1ncnc2c1ncn2[C@@H]1O[C@H](COP(=O)(O)O[C@H]2[C@@H](O)[C@H](n3ccc(=O)[nH]c3=O)O[C@@H]2CO)[C@@H](O)[C@H]1O [UpA, uridyl (3'→5') adenosine]",4e+06 M⁻¹ s⁻¹
